One may read the pIC50 as the negative decadic logarithm of the IC50, by convention in mol/L.

pIC50: −log10 of the molar value.

For the test, the target named is Arachidonate 15-lipoxygenase (Oryctolagus cuniculus). The experiment in a line: Inhibitory activity against reticulocyte 15-lipoxygenase in rabbit was evaluated.
For `COc1cc(CCc2ccc(NC(=O)c3ccc(C)cc3O)cc2)ccc1O` [2-Hydroxy-N-{4-[2-(4-hydroxy-3-methoxy-phenyl)-ethyl]-phenyl}-4-methyl-benzamide], the pIC50 is less than 4.60. The same measure for `O=C(Nc1ccc(CCc2ccc(O)c(O)c2)cc1)c1cccc(Cl)c1O` [3-Chloro-N-{4-[2-(3,4-dihydroxy-phenyl)-ethyl]-phenyl}-2-hydroxy-benzamide]: 5.92; for `O=C(Nc1ccc(CCc2ccc(O)c(O)c2)cc1)c1ccc(-c2ccccc2)cc1O` [3-Hydroxy-biphenyl-4-carboxylic acid {4-[2-(3,4-dihydroxy-phenyl)-ethyl]-phenyl}-amide]: less than 4.60. For `O=C(Nc1ccc(CCc2ccc(O)c(O)c2)cc1)c1cc(Br)ccc1O` [5-Bromo-N-{4-[2-(3,4-dihydroxy-phenyl)-ethyl]-phenyl}-2-hydroxy-benzamide], the pIC50 was 5.82. On to `O=C(Nc1ccc(CCc2ccc(O)c(O)c2)cc1)c1ccc(O)cc1O` [N-{4-[2-(3,4-Dihydroxy-phenyl)-ethyl]-phenyl}-2,4-dihydroxy-benzamide], for which the pIC50 was 5.30. The same measure for `Cc1ccc(C(=O)N(C)c2ccc(CCc3ccc(O)c(O)c3)cc2)c(O)c1` [N-{4-[2-(3,4-Dihydroxy-phenyl)-ethyl]-phenyl}-2-hydroxy-4,N-dimethyl-benzamide]: 5.30; for `O=C(O)c1cccc(C(=O)Nc2ccc(CCc3ccc(O)c(O)c3)cc2)c1O` [N-{4-[2-(3,4-Dihydroxy-phenyl)-ethyl]-phenyl}-2-hydroxy-isophthalamic acid]: less than 4.60. Then `COc1ccc(CCc2ccc(NC(=O)c3ccccc3O)cc2)cc1OC` [N-{4-[2-(3,4-Dimethoxy-phenyl)-ethyl]-phenyl}-2-hydroxy-benzamide], with less than 4.60.

The values above are taken from BindingDB's records for doi:10.1016/0960-894X(95)00565-B (1996).
